Patent publication US3980794A, “Method for promoting growth of poultry with 3-(5-nitro-2-imidazolyl)pyrazoles” (Eli Lilly and Company, priority 1975, dated 1976)
≈ marks a conversion by molar mass, not a printed value. Where two headings read alike, the source gives them in different places.

What was measured:
[1] = tested on: Treponema hyodysenteriae; experiment: In vitro activity against Treponema hyodysenteriae (Experiment 8); format: cell-based; details: Brachyspira hyodysenteriae; repeat test, doubling dilutions 100 to 0.048 mcg./ml.; read-out: minimum inhibitory concentration (MIC)
Method: A number of representative compounds, namely, 1, 5, 6, 7, 12, 13D, 14, and 18, were tested for their in vitro activity against Treponema hyodysenteriae. The treponema were propagated on blood agar plates. Each plate which was prepared contained 20 ml. of trypticase soy agar (Baltimore Biological Laboratory [BBL]) with 5.0 g./l. of yeast extract (Difco) and 5 percent sterile defibrinated horse blood. The plates were sterile plastic 15 × 100 mm. petri plates. Incubation was carried out at 37°C. for 4 days under anaerobic conditions using the BBL Gas Pak system.
The concentrations of test compounds in this initial test were prepared in dilutions ranging from 2000 mcg./ml. to 7.8 mcg./ml. The test procedure was carried out in the following manner. Five ml. of a twenty-fold concentration in tryptose broth (Difco) of each filter-sterilized test compound dilution was mixed in a series of flasks containing 90 ml. of melted trypticase soy agar with yeast extract. Five ml. of horse blood was then added per flask. The contents of these flasks were then used to prepare a series of blood agar plates in doubling decreasing dilutions ranging from 100 mcg./ml. to 0.39 mcg./ml.
The treponema for inoculation of these plates were obtained by adding 3.0 ml. of sterile tryptose broth to the surface of a plate on which the treponema had been propagated. […]

[2] = tested on: Pasteurella multocida and Pasteurella hemolytica; experiment: In vivo activity against pasteurellosis in calves (Experiment 10)
Method: The in vivo activity of compound 1 against pasteurellosis in calves was determined in the following manner. Twelve calves weighing approximately 180 pounds each were obtained from a commercial source and were brought to the research facility where they were weighed individually and identified by ear tag. The calves were divided into two groups of six calves each, and two hundred thousand ascaris ova were administered to each calf seven days prior to the pasteurella challenge. […] The compound was administered orally in two equal doses of 2000 mg. each, using capsules containing 500 mg. of compound each. The actual dosage of the test compound ranged from about 45 to about 55 mg. per kilo per head per day. The treatment was initiated one day prior to the pasteurella challenge and was continued daily for a total of seven days. […] The pasteurella challenge was prepared using three isolates of Pasteurella multocida and three isolates of Pasteurella hemolytica, all of bovine origin. The isolates were grown in tryptose culture for about 18 hours and then mixed in equal parts in a challenge cocktail. Approximately 0.1 ml. was used to aerosol-expose each calf. This exposure was carried out by placing a plastic bag over the head of each calf and running the aerosol into the bag. The pasteurella challenge was timed to coincide with the period of mechanical injury to the lung tissue caused by the […] larvae migration. […] All the calves were sacrificed on the tenth day post-pasteurella challenge, and the extent of pneumonic lesions in the lung tissues noted. Thus, after the calves were sacrificed, the lungs were removed from each calf and examined for lesions grossly. In addition, attempts were made to re-isolate pasteurella from the pneumonic lung tissue.

[3] = tested on: Treponema hyodysenteriae
[4] = 100 g./ton in feed, all medicated pigs

Question: Which MIC [1] does the source give for `Cn1nc(-c2ncc([N+](=O)[O-])n2C)c(C#N)c1N` [Compound 1, 5-Amino-1-methyl-3-(1-methyl-5-nitro-2-imidazolyl)pyrazole-4-carbonitrile] here?
Answer: Its MIC is 0.097 µg/mL (≈ 0.392 µM).

Question: And the “pasteurella colonies in lungs of a third treated calf” value ([2]; at necropsy)?
Answer: The value was “only three pasteurella colonies”.

Question: What about the “calves with moderate number of pasteurella colonies in lungs” value ([2]; at necropsy, six calves) of the same molecule?
Answer: Its value is “Another treated calf”.

Question: What about the “calves with numerous colonies of pasteurella in lungs” value ([2]; at necropsy, six calves) of the same molecule?
Answer: The value was “One of the treated calves”.

Question: What about the “calves yielding no pasteurella from the lung tissue” value ([2]; at necropsy, six calves) of the same molecule?
Answer: Its value is “Three of the treated calves”.

Question: What about the “treatment response (control of lung lesions and reisolation of pasteurella)” value ([2]; oral, about 45 to about 55 mg. per kilo per day) of the same molecule?
Answer: Its value is “All the calves treated with compound 1 showed a treatment response”.

Question: And the body temperature ([2]; oral, about 45 to about 55 mg. per kilo per head per day, versus infected control)?
Answer: The body temperature was “considerably lower”.

Question: And the “calves with moderate pneumonic lung lesion” value ([2]; oral, tenth day post-challenge, six calves)?
Answer: Its value is “A single treated calf”.

Question: What about the “blood and/or mucus in the colon at necropsy” value ([3]; 100 g./ton in feed) of the same molecule?
Answer: Its value is “not found in the colon of any pig”.

Question: And the “Days with Blood and Mucus in Pen” value ([3]; 100 g./ton in feed, Group 1)?
Answer: The value was 0.

Question: What about the “Days with Diarrhea in Pen” value ([3]; 100 g./ton in feed, Group 1) of the same molecule?
Answer: The value was 0.

Question: What about the “Initial Wt. (at time of challenge)” value ([3]; 100 g./ton in feed, Group 1) of the same molecule?
Answer: The value was 35.3.

Question: And the “Mortality (No. Died)” value ([3]; 100 g./ton in feed, Group 1)?
Answer: The value was 0.

Question: And the “Avg. Wt. of Pigs, Survivors” value ([3]; 100 g./ton in feed, Group 1, day 7)?
Answer: The value was 43.3.

Question: And the “Avg. Wt. of Pigs, Survivors” value ([3]; 100 g./ton in feed, Group 1, day 14)?
Answer: Its value is 51.0.

Question: And the “Avg. Wt. of Pigs, Survivors” value ([3]; 100 g./ton in feed, Group 1, day 19)?
Answer: Its value is 57.3.

Question: And the “Avg. Gain (Survivors) From Day Of Challenge” value ([3]; 100 g./ton in feed, Group 1, killed 19 days post-challenge)?
Answer: The value was 22.0 lb.

Question: And the “Days with Blood and Mucus in Pen” value ([3]; 100 g./ton in feed, Group 2)?
Answer: Its value is 0.

Question: What about the “Days with Diarrhea in Pen” value ([3]; 100 g./ton in feed, Group 2) of the same molecule?
Answer: The value was 0.

Question: And the “Initial Wt. (at time of challenge)” value ([3]; 100 g./ton in feed, Group 2)?
Answer: The value was 35.3.

Question: What about the “Mortality (No. Died)” value ([3]; 100 g./ton in feed, Group 2) of the same molecule?
Answer: Its value is 0.

Question: What about the “Avg. Wt. of Pigs, Survivors” value ([3]; 100 g./ton in feed, Group 2, day 7) of the same molecule?
Answer: The value was 42.1.

Question: What about the “Avg. Wt. of Pigs, Survivors” value ([3]; 100 g./ton in feed, Group 2, day 14) of the same molecule?
Answer: Its value is 50.0.

Question: And the “Avg. Wt. of Pigs, Survivors” value ([3]; 100 g./ton in feed, Group 2, day 21)?
Answer: Its value is 59.7.

Question: And the “Avg. Wt. of Pigs, Survivors” value ([3]; 100 g./ton in feed, Group 2, day 28)?
Answer: Its value is 71.2.

Question: And the “Avg. Gain (Survivors) From Day Of Challenge” value ([3]; 100 g./ton in feed, Group 2, killed 28 days post-challenge)?
Answer: The value was 35.9 lb.

Question: What about the “deaths during the trial” value [3, 4] of the same molecule?
Answer: The value was “None of the pigs receiving the test compound died”.

Question: What about the diarrhea [3, 4] of the same molecule?
Answer: Its diarrhea is “not detected”.

Question: And the “mucus and blood in feces” value ([3]; 100 g./ton in feed, whole trial)?
Answer: Its value is “not observed at any time during the trial”.

Question: And the “control of induced swine dysentery” value ([3]; 100 g./ton in feed, overall conclusion)?
Answer: The value was “highly effective”.

Question: And the “control of Treponema hyodysenteriae in swine” value ([3]; compound 1 in the feed about 100 g./ton)?
Answer: Its value is “effective in the control of Treponema hyodysenteriae in swine”.

Question: What about the “slight areas of hemorrhage in the colon and/or stomach” value ([3]; pig, in vivo) of the same molecule?
Answer: The value was “seen in most of the pigs”.

Question: And the “recurrence of swine dysentery” value ([3]; replicate 2, unmedicated ration day 17 until day 28)?
Answer: Its value is “not observed”.
